Source: patent US8946224B2, “Substituted [1,2,4]triazolo[4,3-A]pyrazines for medicaments and pharmaceutical compositions” (Redx Pharma Limited, priority 2010, dated 2015)
Like-named read-outs stand apart in the source and are kept apart here. One block for each compound: values may come before it.

Columns and labels:
HepG2 cells = experiment: HepG2 cytotoxicity, MTT, 72 hours (Examples 93-95); format: cell-based; details: for MEC (minimum effective concentration that significantly crosses vehicle threshold) / AC50: Cell Loss; for AC50: Homo sapiens, HepG2, read-out: AC50 (concentration at which 50% maximum effect is observed)
Method: Methodology for Examples 93-95
A number of analogues were tested for their ability to kill cancer cells.
HepG2 cells were plated on 96-well tissue culture treated polystyrene plates at 0.5×10^4 cells in 100 μL per well. After 24 hr the cells are dosed with test compound at a range of concentrations and incubated for 72 hours. One hour prior to the end of the incubation period, the cells are loaded with MU [yellow; 3-(4,5-dimethyl-2-thiazolyl)-2,5-diphenyl-2H-tetrazolium bromide], the plates are dried and re-solubilised using DMSO. The plates are then scanned using SpectraFluor Plus (TECAN).
Cytotoxicity was assessed using MU. The assay provides a measurement of mitochondrial dehydrogenase activity and cell loss.
A decrease can indicate a loss of cells indicating toxicity due to necrosis, apoptosis or a reduction in cellular proliferation.
A decrease can also indicate an effect on mitochondrial function as mitochondrial dehydrogenasesreduce the MTT [yellow; 3-(4,5-dimethyl-2-thiazolyl)-2,5-diphenyl-2H-tetrazolium bromide] to formazan. The formazan is detected in this assay.
The cells were dosed at concentrations of 0.04, 0.1, 0.4, 1, 4, 10, 40 and 100 μM. The assay was repeated three times at each concentration.
AC50=The concentration at which 50% maximum effect is observed for each cell health parameter.
The cells were dosed at concentrations of 0.02, 0.05, 0.2, 0.5, 2, 5, 20 and 50 μM. The assay was repeated three times at each concentration.
The cells were dosed at concentrations of 0.04, 0.1, 0.4, 1, 4, 10, 40 and 100 μM for bexarotene and the compound of formula 102 when Z is CH═NOH (compound 13a). The cells were dosed at concentrations of 0.02, 0.05, 0.2, 0.5, 2, 5, 20 and 50 μM for the compound of formula 102 when Z is CH═NOMe (compound 13b). The assay was repeated three times at each concentration.

[1] = test system: PathHunter NHRPro cell lines; experiment: PathHunter NHRPro cell assay, antagonist format (Examples 90-92); format: cell-based; details: for Emax: read-out: Max Response; for IC50: read-out: RC50 (IC50)
Method: Methodology for Examples 90-92 Cell Handling
PathHunter NHRPro cell lines were expanded from freezer stocks in T25 flasks according to standard procedures and maintained in selective growth media prior to assay.
Once it was established that the cells were healthy and growing normally, cells were passaged from flasks using cell dissociation reagent and seeded into white walled clear bottom 384-well microplates for compound profiling.
For profiling, cells were seeded at a density of 10000 cells per well in a total volume of 20 μL and were allowed to adhere and recover overnight prior to compound addition. Media contained charcoal-dextran filtered serum to reduce the level of hormones present.
Agonist dose curves were performed the morning of profiling to determine the EC80 value for the following antagonist testing with compounds. 5 μL of 5× agonist was added to each well with an equal concentration of vehicle present.
EC80 agonist concentration was determined directly from agonist dose curve.
For antagonist determination, cells were pre-incubated with antagonist followed by agonist challenge at the EC80 concentration.
5 μL of 5× compound added to cells and incubated at 37° C. for 30 minutes.
5 μL of 6× EC80 agonist added to cells and incubated at 37° C. for 90 minutes (180 minutes for EDG2 and EDG8).
After appropriate compound incubation, assay signal was generated through a single addition of 15 μL (50% v/v) of PathHunter Detection reagent cocktail for agonist and antagonist assays respectively followed by one hour incubation at room temperature.
Microplates were read following signal generation with a PerkinElmer Envision™ instrument for chemiluminescent signal detection.
Dose curves in the presence and absence of compound were plotted using GraphPad Prism or Activity Base.

recombinant human MAO-B = target: T1, recombinant human MAO-B (Homo sapiens, UniProt P27338); experiment: MAO-B inhibition, kynuramine substrate, LC-MS/MS of 4-hydroxyquinoline (Example 99); format: biochemical; details: for remaining activity at 0.001 µM: 0.001 μM test compound; for remaining activity at 0.001 µM / remaining activity at 0.01 µM / remaining activity at 0.04 µM / remaining activity at 0.1 µM / remaining activity at 0.4 µM / remaining activity at 1 µM / remaining activity at 10 µM: kynuramine 25 μM, read-out: Mean % Activity Remaining (n = 2); for remaining activity at 0.01 µM: 0.010 μM test compound; for remaining activity at 0.04 µM: 0.04 μM test compound; for remaining activity at 0.1 µM: 0.1 μM test compound; for remaining activity at 0.4 µM: 0.4 μM test compound; for remaining activity at 1 µM: 1 μM test compound; for remaining activity at 10 µM: 10 μM test compound; for IC50: MAO-B, substrate kynuramine 25 μM
T1 sequence (P27338 1-520): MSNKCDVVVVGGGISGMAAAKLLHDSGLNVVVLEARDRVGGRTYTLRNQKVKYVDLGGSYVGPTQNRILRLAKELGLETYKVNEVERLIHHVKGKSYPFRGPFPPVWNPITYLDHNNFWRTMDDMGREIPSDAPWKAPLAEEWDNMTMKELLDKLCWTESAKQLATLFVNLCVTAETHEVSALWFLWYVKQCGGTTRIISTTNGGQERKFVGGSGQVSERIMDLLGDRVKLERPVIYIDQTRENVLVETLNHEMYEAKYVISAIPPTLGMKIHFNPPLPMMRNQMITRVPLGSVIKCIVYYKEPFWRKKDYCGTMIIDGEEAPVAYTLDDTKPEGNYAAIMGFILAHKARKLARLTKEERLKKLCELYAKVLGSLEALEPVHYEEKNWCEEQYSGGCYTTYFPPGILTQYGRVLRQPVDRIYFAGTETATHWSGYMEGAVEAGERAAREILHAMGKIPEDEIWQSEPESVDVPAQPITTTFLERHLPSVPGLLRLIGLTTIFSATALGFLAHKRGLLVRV
Method: Eight test compound concentrations (0.001-10 μM; final DMSO concentration 0.5%) were incubated with recombinant human MAO-B (2 μg/mL) in the presence of the probe substrate kynuramine (25 μM) for 25 min at 37° C. Each test compound concentration was assessed in duplicate. […] The reactions were terminated by addition of methanol containing internal standard for analytical quantification. The quenched samples were incubated at 4° C. for 10 min and centrifuged at 4° C. for 10 min. The supernatant was removed and analysed by LC-MS/MS for the probe metabolite 4-hydroxyquinoline. Generic Cyprotex LC-MS/MS analytical conditions were used.
A decrease in the formation of the metabolite compared to vehicle control was used to calculate an IC50 value.

[2] = Example 95, dosed 0.04-100 μM (compound 13b 0.02-50 μM)

SMILES: Cn1c(CCCC(=O)O)nc2cc(N(CCCl)CCCl)ccc21 [Bendamustine, bendamustine, reference compound]
MEC (minimum effective concentration that significantly crosses vehicle threshold) (HepG2 cells; Example 93, dosed 0.04-100 μM): 40 µM
AC50 (HepG2 cells; Example 93, dosed 0.04-100 μM): 92.3 µM

SMILES: C=C(c1ccc(C(=O)O)cc1)c1cc2c(cc1C)C(C)(C)CCC2(C)C [Bexarotene, bexarotene, reference compound]
MEC (minimum effective concentration that significantly crosses vehicle threshold) (HepG2 cells; [2]): 40 µM
AC50 (HepG2 cells; [2]): 44.3 µM

SMILES: CCOc1nc2cccc(C(=O)O)c2n1Cc1ccc(-c2ccccc2-c2nnn[nH]2)cc1 [Candesartan]
Emax ([1]; AGTR1, Arrestin): 101%
IC50 ([1]; AGTR1, Arrestin): 9.87 nM

SMILES: CCCCc1nc(Cl)c(C=NO)n1Cc1ccc(-c2ccccc2-c2nn[nH]n2)cc1 [Compound 4a, 1-((2′-(2H-Tetrazol-5-yl)-[1,1′-biphenyl]-4-yl)methyl)-2-butyl-4-chloro-1H-imidazole-5-carbaldehyde oxime]
Emax ([1]; AGTR1, Arrestin): 96.7%
IC50 ([1]; AGTR1, Arrestin): 109 nM

SMILES: CCCCc1nc(Cl)c(C=NOC)n1Cc1ccc(-c2ccccc2-c2nn[nH]n2)cc1 [Compound 4b, 1-((2′-(2H-Tetrazol-5-yl)-[1′,1′-biphenyl]-4-yl)methyl)-2-butyl-4-chloro-1H-imidazole-5-carbaldehyde O-methyl oxime]
Emax ([1]; AGTR1, Arrestin): 97.4%
IC50 ([1]; AGTR1, Arrestin): 248 nM

SMILES: Cn1c(CCCC=O)nc2cc(N(CCCl)CCCl)ccc21 [Compound 6a, 4-(5-(Bis(2-chloroethyl)amino)-1-methyl-1H-benzo[d]imidazol-2-yl)butanal]
MEC (minimum effective concentration that significantly crosses vehicle threshold) (HepG2 cells; Example 93, dosed 0.04-100 μM): 4 µM
Activity in HepG2 cell assay (in words) (HepG2 cells; Example 93, 0.04-100 μM, 72 hours): exhibited a higher activity than compound 6b
AC50 (HepG2 cells; Example 93, dosed 0.04-100 μM): 5.83 µM

SMILES: Cn1c(CCCC=NO)nc2cc(N(CCCl)CCCl)ccc21 [Compound 6b, 4-(5-(Bis(2-chloroethyl)amino)-1-methyl-1H-benzo[d]imidazol-2-yl)butanal oxime]
MEC (minimum effective concentration that significantly crosses vehicle threshold) (HepG2 cells; Example 93, dosed 0.04-100 μM): 10 µM
AC50 (HepG2 cells; Example 93, dosed 0.04-100 μM): 17.3 µM

SMILES: CCOc1nc2cccc(C=NO)c2n1Cc1ccc(-c2ccccc2-c2nnn[nH]2)cc1 [Compound 10a, 1-((2′-(1H-Tetrazol-5-yl)-[1,1′-biphenyl]-4-yl)methyl)-2-ethoxy-1H-benzo[d]imidazole-7-carbaldehyde oxime]
Emax ([1]; AGTR1, Arrestin): 101%
IC50 ([1]; AGTR1, Arrestin): 46.5 nM

SMILES: CCOc1nc2cccc(C=NOC)c2n1Cc1ccc(-c2ccccc2-c2nnn[nH]2)cc1 [Compound 10b, 1-((2′-(1H-tetrazol-5-yl)-[1,1′-biphenyl]-4-yl)methyl)-2-ethoxy-1H-benzo[d]imidazole-7-carbaldehyde O-methyl oxime]
Emax ([1]; AGTR1, Arrestin): 98.8%
IC50 ([1]; AGTR1, Arrestin): 48.8 nM

SMILES: C=C(c1ccc(C=NO)cc1)c1cc2c(cc1C)C(C)(C)CCC2(C)C [Compound 13a, 4-(1-(3,5,5,8,8-Pentamethyl-5,6,7,8-tetrahydronaphthalen-2-yl)vinyl)benzaldehyde oxime]
MEC (minimum effective concentration that significantly crosses vehicle threshold) (HepG2 cells; [2]): 40 µM
AC50 (HepG2 cells; [2]): 15.8 µM

SMILES: C=C(c1ccc(C=NOC)cc1)c1cc2c(cc1C)C(C)(C)CCC2(C)C [Compound 13b, 4-(1-(3,5,5,8,8-Pentamethyl-5,6,7,8-tetrahydronaphthalen-2-yl)vinyl)benzaldehyde O-methyl oxime]
MEC (minimum effective concentration that significantly crosses vehicle threshold) (HepG2 cells; [2]): 50 µM
AC50 (HepG2 cells; [2]): 45.6 µM

SMILES: Cc1ccc(F)cc1C(=O)Nc1ccc(C(=O)N2Cc3cccn3Cc3ccccc32)c(Cl)c1 [Lixivaptan, lixivaptan, reference compound]
Emax ([1]; AVPR2, Arrestin): 102%
IC50 ([1]; AVPR2, Arrestin): 1.28 nM

SMILES: CCCCc1nc(Cl)c(CO)n1Cc1ccc(-c2ccccc2-c2nn[nH]n2)cc1 [Losartan]
Emax ([1]; AGTR1, Arrestin): 98.6%
IC50 ([1]; AGTR1, Arrestin): 8.21 nM

SMILES: C[C@H](NCc1ccc(OCc2cccc(F)c2)cc1)C(N)=O [Safinamide, safinamide, reference compound]
remaining activity at 0.001 µM (recombinant human MAO-B): 101%
remaining activity at 0.01 µM (recombinant human MAO-B): 95%
remaining activity at 0.04 µM (recombinant human MAO-B): 79%
remaining activity at 0.1 µM (recombinant human MAO-B): 62%
remaining activity at 0.4 µM (recombinant human MAO-B): 31%
remaining activity at 1 µM (recombinant human MAO-B): 13%
remaining activity at 10 µM (recombinant human MAO-B): 2%

SMILES: CCCCC(=O)N(Cc1ccc(-c2ccccc2-c2nnn[nH]2)cc1)[C@H](C(=O)O)C(C)C [Valsartan]
Emax ([1]; AGTR1, Arrestin): 106%
IC50 ([1]; AGTR1, Arrestin): 1.7 nM

Second part, led by results:

IC50 ([1]; AVPR2, Arrestin): 3.8 nM
SMILES: Cc1ccc(F)cc1C(=O)Nc1ccc(CN2Cc3cccn3Cc3ccccc32)c(Cl)c1 [Compound 15a, N-(4-((5H-Benzo[e]pyrrolo[1,2-a][1,4]diazepin-10(11H)-yl)methyl)-3-chlorophenyl)-5-fluoro-2-methylbenzamide]
Emax ([1]; AVPR2, Arrestin): 108%

IC50 ([1]; AVPR2, Arrestin): 2370 nM
SMILES: Cc1ccc(F)cc1CNc1ccc(C(=O)N2Cc3cccn3Cc3ccccc32)c(Cl)c1 [Compound 15b, (5H-Benzo[e]pyrrolo[1,2-a][1,4]diazepin-10(11H)-yl)(2-chloro-4-(5-fluoro-2-methylbenzylamino)phenyl)methanone]
Emax ([1]; AVPR2, Arrestin): 79.4%

remaining activity at 0.001 µM (recombinant human MAO-B): 90%
remaining activity at 0.01 µM (recombinant human MAO-B): 84%
remaining activity at 0.04 µM (recombinant human MAO-B): 73%
remaining activity at 0.1 µM (recombinant human MAO-B): 65%
remaining activity at 0.4 µM (recombinant human MAO-B): 50%
remaining activity at 1 µM (recombinant human MAO-B): 26%
remaining activity at 10 µM (recombinant human MAO-B): 4%
IC50 (recombinant human MAO-B): 246 nM
SMILES: C[C@@H](C=NO)NCc1ccc(OCc2cccc(F)c2)cc1 [Compound 31a, (S)-2-(4-(3-Fluorobenzyloxy)benzylamino)propanal oxime]

remaining activity at 0.001 µM (recombinant human MAO-B): 90%
remaining activity at 0.01 µM (recombinant human MAO-B): 75%
remaining activity at 0.04 µM (recombinant human MAO-B): 57%
remaining activity at 0.1 µM (recombinant human MAO-B): 34%
remaining activity at 0.4 µM (recombinant human MAO-B): 15%
remaining activity at 1 µM (recombinant human MAO-B): 6%
remaining activity at 10 µM (recombinant human MAO-B): 1%
IC50 (recombinant human MAO-B): 46 nM
SMILES: CON=C[C@H](C)NCc1ccc(OCc2cccc(F)c2)cc1 [Compound 31b, (S)-2-(4-(3-Fluorobenzyloxy)benzylamino)propanal O-methyl oxime]
